Several values for one entry are separate records, joined by “and”; a condition that tells them apart may be missing. Equal values may be shown once.
Target: CAD protein (Mesocricetus auratus)
Assay: Compound ability to inhibit the catalytic activity of hamster Dihydroorotase (DHOase) expressed in Escherichia coli.

Row | SMILES | Ki
1 | O=C1CP(O)(O)=CC(C(=O)O)N1 (configuration not stated) [4-Hydroxy-4,6-dioxo-4lambda*5*-[1,4]azaphosphinane-2-carboxylic acid] | 4 µM
2 | O=C1CP(O)(S)=C[C@@H](C(=O)O)N1 (stereo partly drawn) [(2R,4S)-4-Mercapto-4,6-dioxo-4lambda*5*-[1,4]azaphosphinane-2-carboxylic acid] | 2.9 µM and 3.1 µM

Source: BindingDB's records for doi:10.1021/jm970814z (University of Sydney, 1998)
